In paper PMC9898996 (Bioorganic & medicinal chemistry, 2022):

Columns and labels:
human D2 receptor [1] = target: T1, human D2 receptor (Homo sapiens, UniProt P14416)
rat D2L receptor = rat D2L receptor (Rattus norvegicus, UniProt P61169); format: binding
α-syn = α-syn (Homo sapiens, UniProt P37840); experiment: ThT assay of α-syn aggregation induced by seeding with 0.5% PFFs; format: biochemical; settings: 1.25 mg/mL α-syn + 0.5% PFFs, 30D without shaking, drug 172.9 μM
PC12 cells = experiment: MTT viability of PC12 cells treated with α-syn seeded samples; format: cell-based; settings: samples collected at 0D; drug 20 μM, 24 h
human D2 receptor [2] = target: T1, human D2 receptor; settings: [35S]GTPγS, D2 receptors

rat D2L receptor, sequence (P61169 whole entry): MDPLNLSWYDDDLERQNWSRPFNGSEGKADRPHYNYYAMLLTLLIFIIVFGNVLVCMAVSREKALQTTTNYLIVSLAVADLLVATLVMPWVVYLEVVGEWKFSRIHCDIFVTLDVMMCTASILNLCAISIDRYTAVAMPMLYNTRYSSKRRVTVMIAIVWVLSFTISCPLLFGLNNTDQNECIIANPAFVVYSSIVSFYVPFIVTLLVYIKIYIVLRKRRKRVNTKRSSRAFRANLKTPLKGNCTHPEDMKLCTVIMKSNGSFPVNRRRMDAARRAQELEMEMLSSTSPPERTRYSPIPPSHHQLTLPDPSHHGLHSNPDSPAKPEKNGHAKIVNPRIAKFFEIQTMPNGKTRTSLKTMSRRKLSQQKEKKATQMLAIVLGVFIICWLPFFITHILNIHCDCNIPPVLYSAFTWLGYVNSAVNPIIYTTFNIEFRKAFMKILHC
T1 sequence (P14416 whole entry): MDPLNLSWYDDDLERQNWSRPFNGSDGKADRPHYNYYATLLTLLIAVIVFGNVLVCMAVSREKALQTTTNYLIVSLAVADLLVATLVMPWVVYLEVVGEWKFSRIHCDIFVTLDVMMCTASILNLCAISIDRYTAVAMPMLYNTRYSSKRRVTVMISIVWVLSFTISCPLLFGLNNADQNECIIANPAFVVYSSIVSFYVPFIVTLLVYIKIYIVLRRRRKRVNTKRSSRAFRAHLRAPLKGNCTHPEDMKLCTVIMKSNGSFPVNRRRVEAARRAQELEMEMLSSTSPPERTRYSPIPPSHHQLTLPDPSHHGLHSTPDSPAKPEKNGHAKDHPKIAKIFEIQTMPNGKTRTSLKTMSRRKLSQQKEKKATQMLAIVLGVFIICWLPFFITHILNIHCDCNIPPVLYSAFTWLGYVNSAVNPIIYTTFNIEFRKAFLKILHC

CCCN(CCC)C1CCc2c(O)cccc2C1 (single isomer, unassigned; (-)) [(−)-5-OH-DPAT, 5-OH-DPAT]
Emax (human D2 receptor [1]): 80 ± 4%

CCCN(CC(=O)N1CCN(C(=O)CN(CCC)[C@H]2CCc3c(O)cccc3C2)CC1)[C@H]1CCc2c(O)cccc2C1 [Compound D-380, (s)-1,1’-(piperazine-1,4-diyl)bis(2-(((s)-5-hydroxy-1,2,3,4-tetrahydronaphthalen-2-yl)(propyl)amino)ethanone)]
Activity at DA receptors (binding, in words) (rat D2L receptor; D2/D3 receptor binding): little to no activity
Inhibition of [3H]spiroperidol binding, D2L (rat D2L receptor; at 100 μM, cloned rat D2L in HEK-293 cells): No Inhibition at 100 μM

CCCN(CCc1ccc(CCN(CCC)[C@H]2CCc3c(O)cccc3C2)cc1)[C@H]1CCc2c(O)cccc2C1 [Compound D-382, (6s,6’s)-6,6’-(2,2’-(1,4-phenylene)bis(ethane-2,1-diyl))bis(propylazanediyl)bis(5,6,7,8-tetrahydronaphthalen-1-ol)]
Increase in affinity for D2 receptors compared to D-381 (rat D2L receptor; binding, D2 receptors): greater than threefold increase

Br.Br.CCCN(CCc1cc(O)c(CCN(CCC)[C@H]2CCc3c(O)cccc3C2)cc1O)[C@H]1CCc2c(O)cccc2C1 [Compound D-666, 2,5-Bis(2-(((S)-5-hydroxy-1,2,3,4-tetrahydronaphthalen-2-yl)(propyl)amino)ethyl)benzene-1,4-diol]
Inhibition of α-syn aggregation (ThT signal) (α-syn): inhibited the aggregation completely
Toxicity of compound by itself (PC12 viability, MTT) (PC12 cells): do not see such toxicity

CCCN(CCc1cc(O)c(CCN(CCC)[C@H]2CCc3nc(N)sc3C2)cc1O)[C@H]1CCc2nc(N)sc2C1 [Compound D-673, 2,5-bis(2-(((S)-2-amino-4,5,6,7-tetrahydrobenzo[d]thiazol-6-yl)(propyl)amino)-ethyl)benzene-1,4-diol]
Inhibition of α-syn aggregation (ThT signal) (α-syn): inhibited the aggregation completely
Toxicity of compound by itself (PC12 viability, MTT) (PC12 cells): shows toxicity
D2 functional potency compared to pramipexole (human D2 receptor [2]): more than 7 fold
